Results: US5514705A, “Epidioxymanadic acids A and B” (PharmaMar, S.A., priority 1994, dated 1996)
Converted amounts (≈) assume the structure as drawn.

Key:
Format in all cases: cell-based
[1] = tested on: P388 (leukemia); assay: Cytotoxicity against P388 cell line in culture; details: Mus musculus; P388 leukemia cells in culture
[2] = tested on: A549 (human lung carcinoma); assay: Cytotoxicity against A549 cell line in culture; details: A549 human lung carcinoma cells in culture
[3] = tested on: HT29 (human colon carcinoma); assay: Cytotoxicity against HT29 cell line in culture; details: HT-29; HT29 human colon carcinoma cells in culture
[4] = tested on: MEL-28 (human melanoma); assay: Cytotoxicity against MEL-28 cell line in culture; details: SK-MEL-28; MEL-28 human melanoma cells in culture

| Structure (SMILES) | IC50 [1] [µg/mL] | IC50 [2] [µg/mL] | IC50 [3] [µg/mL] | IC50 [4] [µg/mL] |
| --- | --- | --- | --- | --- |
| CC/C=C(C)/C=C/CCC[C@@]1(OC)C[C@H](C)[C@H](CC(=O)O)OO1 [Epidioxymanadic B, epidioxymanadic acid B] | 0.5 (≈ 1.53 µM) | 1 (≈ 3.06 µM) | 2 (≈ 6.13 µM) | 2.5 (≈ 7.66 µM) |
| C/C=C(C)/C=C/CCC[C@@]1(OC)C[C@H](C)[C@H](CC(=O)O)OO1 [Epidioxymanadic A, epidioxymanadic acid A] | 0.5 (≈ 1.6 µM) | 1 (≈ 3.2 µM) | 2 (≈ 6.4 µM) | 5 (≈ 16 µM) |
